Experimental data published in ChEMBL document CHEMBL1201862, “PubChem BioAssay data set” (2004).
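Test compounds were applied to cells in 96-well plates for 48 hours at 5 doses. Abbreviation: GI50, concentration required for 50% inhibition of growth.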 Active and inactive are the calls of the source. No stated cut-off is given here; in the data, active = GI50 up to about 1.1 µM and inactive = higher. Where a SMILES comes first, the peptide text is derived from it.

Key:
Experiment in all cases: inhibition of tumour cell growth, NCI panel, 48 h
[1] = system: A498
[2] = system: A549
[3] = system: ACHN
[4] = system: EKVX
[5] = system: HOP-62
[6] = system: HT-29
[7] = system: K562
[8] = system: M14
[9] = system: MOLT-4
[10] = system: NCI/ADR-RES
[11] = system: OVCAR-3
[12] = system: OVCAR-5
[13] = system: SF-268
[14] = system: SK-MEL-2
[15] = system: SR
[16] = system: T47D
[17] = system: U-251
[18] = system: UACC-257
[19] = system: UO-31
[20] = system: HCC 2998

SMILES	GI50 [1]	GI50 [2]	GI50 [3]	GI50 [4]	GI50 [5]	GI50 [6]	GI50 [7]	GI50 [8]	GI50 [9]	GI50 [10]	GI50 [11]	GI50 [12]	GI50 [13]	GI50 [14]	GI50 [15]	GI50 [16]	GI50 [17]	GI50 [18]	GI50 [19]	GI50 [20]
Cc1c(NC(=O)Nc2c(Cl)cccc2Cl)c(=O)n(-c2ccccc2)n1C	> 100 µM (inactive)	> 100 µM (inactive)	> 100 µM (inactive)	> 100 µM (inactive)	> 100 µM (inactive)	> 100 µM (inactive)	> 100 µM (inactive)	> 100 µM (inactive)	> 100 µM (inactive)	> 100 µM (inactive)	> 100 µM (inactive)	> 100 µM (inactive)	> 100 µM (inactive)	> 100 µM (inactive)	> 100 µM (inactive)	> 100 µM (inactive)	> 100 µM (inactive)	> 100 µM (inactive)	> 100 µM (inactive)	–
O=C1NC(=O)C(c2c[nH]c3ccccc23)=C1c1cnc[nH]1	> 100 µM (inactive)	> 100 µM (inactive)	> 100 µM (inactive)	> 100 µM (inactive)	> 100 µM (inactive)	66.4 µM (inactive)	5.61 µM (inactive)	> 100 µM (inactive)	8.47 µM (inactive)	> 100 µM (inactive)	82 µM (inactive)	> 100 µM (inactive)	> 100 µM (inactive)	43.4 µM (inactive)	23.6 µM (inactive)	> 100 µM (inactive)	> 100 µM (inactive)	> 100 µM (inactive)	70.6 µM (inactive)	–
CCc1nc(Cl)nc(Cl)c1Cl	4.94 µM (inactive)	2.63 µM (inactive)	0.34 µM (active)	11.4 µM (inactive)	8.05 µM (inactive)	0.394 µM (active)	0.107 µM (active)	1.28 µM (inactive)	0.332 µM (active)	2.52 µM (inactive)	0.535 µM (active)	0.7 µM (active)	0.54 µM (active)	–	0.416 µM (active)	5.55 µM (inactive)	1.39 µM (inactive)	0.547 µM (active)	0.276 µM (active)	0.706 µM (active)
Oc1ccccc1/C=N/N1C(=S)N(C23CC4CC(CC(C4)C2)C3)C(=N\c2ccccc2)/C1=N/c1ccccc1	–	> 100 µM (inactive)	50 µM (inactive)	> 100 µM (inactive)	> 100 µM (inactive)	29.6 µM (inactive)	4.46 µM (inactive)	> 100 µM (inactive)	3.92 µM (inactive)	> 100 µM (inactive)	> 100 µM (inactive)	> 100 µM (inactive)	> 100 µM (inactive)	> 100 µM (inactive)	43.3 µM (inactive)	9.35 µM (inactive)	76.6 µM (inactive)	> 100 µM (inactive)	> 100 µM (inactive)	> 100 µM (inactive)
COc1ccc(-n2c(-c3ccccc3)cc(-c3cccs3)c2-c2cccs2)cc1	> 100 µM (inactive)	39.4 µM (inactive)	> 100 µM (inactive)	> 100 µM (inactive)	> 100 µM (inactive)	> 100 µM (inactive)	–	> 100 µM (inactive)	> 100 µM (inactive)	> 100 µM (inactive)	> 100 µM (inactive)	> 100 µM (inactive)	> 100 µM (inactive)	–	> 100 µM (inactive)	26.5 µM (inactive)	> 100 µM (inactive)	> 100 µM (inactive)	> 100 µM (inactive)	> 100 µM (inactive)
N#CC1C(=O)NC(=O)C(C#N)C1c1ccc(Cl)c(Cl)c1 (stereo not given)	–	49.3 µM (inactive)	22.4 µM (inactive)	> 100 µM (inactive)	20.4 µM (inactive)	16.7 µM (inactive)	28.8 µM (inactive)	23.4 µM (inactive)	26.9 µM (inactive)	28 µM (inactive)	24.2 µM (inactive)	23.4 µM (inactive)	34.8 µM (inactive)	80.2 µM (inactive)	18.2 µM (inactive)	33.3 µM (inactive)	23.7 µM (inactive)	35.9 µM (inactive)	16.5 µM (inactive)	–
CSc1ncc2c(n1)-c1ccccc1OC2	13.3 µM (inactive)	52.2 µM (inactive)	45.9 µM (inactive)	34.3 µM (inactive)	–	40.4 µM (inactive)	–	45.4 µM (inactive)	50 µM (inactive)	71.3 µM (inactive)	27.9 µM (inactive)	> 100 µM (inactive)	49.4 µM (inactive)	> 100 µM (inactive)	61 µM (inactive)	15.9 µM (inactive)	51.3 µM (inactive)	> 100 µM (inactive)	38.8 µM (inactive)	–
COc1ccccc1C[C@@H]1OC2(C=CC(=O)C=C2)O[C@H]1Cc1ccccc1OC	16.9 µM (inactive)	21.7 µM (inactive)	7.89 µM (inactive)	5.65 µM (inactive)	7.4 µM (inactive)	9.02 µM (inactive)	11.5 µM (inactive)	7.5 µM (inactive)	2.04 µM (inactive)	8.38 µM (inactive)	8.09 µM (inactive)	8.43 µM (inactive)	7.35 µM (inactive)	9.29 µM (inactive)	1.78 µM (inactive)	19.2 µM (inactive)	10.2 µM (inactive)	8.11 µM (inactive)	6.35 µM (inactive)	–
c1ccc(-c2c(-c3[nH]c4ccccc4c3-c3ccccc3)[nH]c3ccccc23)cc1	–	3.5 µM (inactive)	3.33 µM (inactive)	3.89 µM (inactive)	2.55 µM (inactive)	3.45 µM (inactive)	4.03 µM (inactive)	3.54 µM (inactive)	3.35 µM (inactive)	3.72 µM (inactive)	2.3 µM (inactive)	11.1 µM (inactive)	6.47 µM (inactive)	8.45 µM (inactive)	2.74 µM (inactive)	2.53 µM (inactive)	4.52 µM (inactive)	12.3 µM (inactive)	3.68 µM (inactive)	1.82 µM (inactive)
C=C1C(=O)O[C@H]2[C@H]3O[C@@H](C[C@@H]12)[C@](C)(O)CCCC(C)=CCC[C@H]3C	–	16.8 µM (inactive)	10.1 µM (inactive)	10.4 µM (inactive)	16.7 µM (inactive)	13.5 µM (inactive)	6.37 µM (inactive)	–	2.08 µM (inactive)	8.2 µM (inactive)	13.9 µM (inactive)	14.6 µM (inactive)	8.04 µM (inactive)	15 µM (inactive)	28.1 µM (inactive)	19.1 µM (inactive)	14 µM (inactive)	10.3 µM (inactive)	11.4 µM (inactive)	11.1 µM (inactive)
C=CC(C)(C)c1cc([C@@H]2COc3cc(O)ccc3C2=O)c(O)c(O)c1OC	–	33.7 µM (inactive)	17.6 µM (inactive)	28.6 µM (inactive)	–	21.9 µM (inactive)	34.8 µM (inactive)	22.3 µM (inactive)	25.7 µM (inactive)	24.8 µM (inactive)	15.8 µM (inactive)	31.4 µM (inactive)	18.2 µM (inactive)	22.5 µM (inactive)	22.3 µM (inactive)	25.4 µM (inactive)	20.2 µM (inactive)	61.7 µM (inactive)	15.9 µM (inactive)	61.8 µM (inactive)
O=C(O)c1ccccc1CC1Cc2ccc3c(c2C1=O)CCC3 (stereo not given)	–	> 100 µM (inactive)	> 100 µM (inactive)	> 100 µM (inactive)	> 100 µM (inactive)	> 100 µM (inactive)	> 100 µM (inactive)	61.8 µM (inactive)	> 100 µM (inactive)	> 100 µM (inactive)	> 100 µM (inactive)	> 100 µM (inactive)	> 100 µM (inactive)	> 100 µM (inactive)	> 100 µM (inactive)	> 100 µM (inactive)	> 100 µM (inactive)	> 100 µM (inactive)	> 100 µM (inactive)	> 100 µM (inactive)
Nc1ccn(C2CC3OCC3O2)c(=O)n1 (stereo not given)	> 100 µM (inactive)	> 100 µM (inactive)	> 100 µM (inactive)	> 100 µM (inactive)	> 100 µM (inactive)	> 100 µM (inactive)	> 100 µM (inactive)	> 100 µM (inactive)	> 100 µM (inactive)	> 100 µM (inactive)	> 100 µM (inactive)	> 100 µM (inactive)	> 100 µM (inactive)	> 100 µM (inactive)	> 100 µM (inactive)	> 100 µM (inactive)	> 100 µM (inactive)	> 100 µM (inactive)	> 100 µM (inactive)	–
CCC(C)C(NC(=O)C1CCCN1C(=O)C(CC(C)C)NC(=O)C(CC(C)C)NC(=O)C(N)CC(C)C)C(=O)NC(C(=O)NCC(=O)NC(CC(N)=O)C(=O)NC(CC(C)C)C(=O)NC(CC(C)C)C(=O)NC(CC(C)C)C(N)=O)C(C)C (stereo not given) (H-LLLPIVGNLLL-NH2; configuration not given here)	> 50 µM (inactive)	> 50 µM (inactive)	> 50 µM (inactive)	> 50 µM (inactive)	> 50 µM (inactive)	> 50 µM (inactive)	–	> 50 µM (inactive)	> 50 µM (inactive)	> 50 µM (inactive)	> 50 µM (inactive)	> 50 µM (inactive)	> 50 µM (inactive)	> 50 µM (inactive)	> 50 µM (inactive)	> 50 µM (inactive)	> 50 µM (inactive)	> 50 µM (inactive)	> 50 µM (inactive)	–
O=C1/C(=C/c2ccc(Cl)cc2)Oc2cc(O)ccc21 [6-HYDROXY-4'-CHLORO AURONE]	–	30.1 µM (inactive)	28.1 µM (inactive)	29.2 µM (inactive)	32.7 µM (inactive)	–	19.1 µM (inactive)	50.6 µM (inactive)	19.6 µM (inactive)	24.9 µM (inactive)	34.7 µM (inactive)	–	52.8 µM (inactive)	–	20.2 µM (inactive)	37.1 µM (inactive)	26.5 µM (inactive)	31.2 µM (inactive)	20.5 µM (inactive)	39.3 µM (inactive)
